Experiments:
filaggrin gene [1] = assay: Screening pharmaceutical agents that promote filaggrin gene expression (QPCR, cultured keratinocytes); format: cell-based, human; conditions: candidate agent at 1% in medium; normal adult skin-derived keratinocytes; 18 hours after addition; relative to RPLP0; FIG. 3
Experimental: Commercially available normal adult skin-derived keratinocytes (Cellntec AG) were disseminated in a culture plate to a concentration of 3×10^3 cells/cm^2 followed by culturing in epithelial cell medium (CnT-BM.1, Cellntec AG) at 37° in a 5% CO2 atmosphere. Three days later, the medium was replaced with medium containing each of the candidate pharmaceutical agents at a concentration of 1% followed by continuing culturing at 37° C. and 5% CO2 and collecting the cells after 2 hours and after 18 hours. The candidate pharmaceutical agents added to the medium consisted of zanthoxylum extract (Maruzen Pharmaceuticals Co., Ltd.), geranium oil (Koei Kogyo Co., Ltd.), cypress oil (Bioland Co., Ltd.), rose oil (Bioland Co., Ltd.), galvanum oil (Bioland Co., Ltd.), pepper oil (Bioland Co., Ltd.), basil oil (Bioland Co., Ltd.), methyl-o-toluate (Aldrich Inc.), methyl anthranilate (Tokyo Chemical Industry Co., Ltd.), dimethyl anthranilate (Tokyo Chemical Industry Co., Ltd.), clove bud caryophyllata oil (Bioland Co., Ltd.) and arnica oil (Koei Kogyo Co., Ltd.). The absence of addition of pharmaceutical agent was used as a negative control, and cortisol (concentration in medium: 50 ng/mL) was used as a positive control.
RNA was extracted from the collected cells using a commercially available RNA extraction-cDNA synthesis kit (FastLane Cell cDNA Kit, Qiagen N.V.) to prepare cDNA. Filaggrin expression levels were measured by quantitative PCR (QPCR) using this cDNA. Expression levels of clock genes PER3 and BMAL1 were measured simultaneously and compared with the expression rhythm of filaggrin gene. A commercially available QPCR reagent kit (Brilliant III Ultra-Fast SYBR Green QPCR Kit, Agilent Technologies Inc.) and QPCR measurement system (MX-3000P Real-time Quantitative PCR System, Agilent Technologies Inc.) were used for QPCR. The expression level of a housekeeping gene in the form of RPLP0 gene was quantified for use as an internal standard, and the relative expression level with respect to PLP0 was calculated and used as the expression level of filaggrin gene. […]

filaggrin gene [2] = assay: Filaggrin gene expression promotion by 1PP, zanthoxylum extract and their combination (QPCR, cultured keratinocytes); format: cell-based, human; conditions: agent at 0.1% in medium (combination: 0.1% each); keratinocytes collected after 18 hours; versus no-agent control; FIG. 4

`COC(=O)c1ccccc1C` [methyl-o-toluate, methyl 2-methylbenzoate] was tested, and the “expression of filaggrin gene after 18 hours in comparison with the negative control” value (“expression of filaggrin gene” for short) (filaggrin gene [1]) was “promote expression of filaggrin gene”.
`CNc1ccccc1C(=O)OC` [dimethyl anthranilate, 2-methyl aminomethylbenzoate] was tested, and the “expression of filaggrin gene” value (filaggrin gene [1]) was “promote expression of filaggrin gene”.
`O=C(O)CCN1CCCCC1` [1PP, 3-(1′-piperidine)propionic acid] was tested, and the “effect of promoting filaggrin gene expression” value (filaggrin gene [2]) was “effect of promoting filaggrin gene expression that was comparable to that of zanthoxylum extract”.
With `COC(=O)c1ccccc1N` [methyl anthranilate, methyl 2-aminobenzoate] the “expression of filaggrin gene” value (filaggrin gene [1]) was “promote expression of filaggrin gene”.
